Series [1] can be described thus: In vitro metabolism of compound II with rat liver slices. The format is in vitro ADME. As to conditions: 157.7 μM, four hours, 37° C., pH 7.4, HPLC photodiode array-UV. Here is the method:
Compound II (157.7 μM) was incubated with rat liver slices (10.17 g wet weight, 250-400 μ thick, ~1.2 cm wide) in 100 ml of Williams' Medium E at pH 7.4 and at 37° C. under an atmosphere of 95% oxygen and 5% carbon dioxide. After four hours the incubation mixture was extracted with ethyl acetate. The extract was evaporated to dryness and the residue reconstituted in methanol. The reconstitute was subjected to preparative HPLC on a reverse-phase column with an on-line UV-diode array detector. Three major metabolites--Ia, Ib and Ic--were isolated for characterization by NMR spectroscopy and mass spectrometry.
The three major products were identified by proton NMR (500 MHz; see Table below) and mass spectrometry as resulting from α-hydroxylation of the ethyl group on the pyridinone (HPLC Peak designating compound Ia), and β- and α-hydroxylation of the ethyl group on the pyridine (designated compounds Ic and Ib, respectively). [drawing 14]

The target of series [2] is T1, recombinant HIV reverse transcriptase (HIV RTR) (Human immunodeficiency virus type 1 group M subtype B, UniProt P04585).
T1 construct: recombinant HIV reverse transcriptase (HIV RTR)
The series is described as follows: Reverse transcriptase assay: incorporation of tritiated deoxyguanosine monophosphate into acid-precipitable cDNA by recombinant HIV reverse transcriptase. In kind it is biochemical. Particulars: poly r(C).oligo d(G)12-18 template, [3H]dGTP, pH 8.2 buffer, 37° C., 45 minutes. Here is the method:
The assay measures the incorporation of tritiated deoxyguanosine monophosphate by recombinant HIV reverse transcriptase (HIV RTR) (or other RT) into acid-precipitable cDNA at the Km values of dGTP and poly r(C).cndot.oligo d(G)12-18.
Thirty uL of a reaction mixture containing equal volumes of: 500 mM Tris.cndot.HCl (pH 8.2), 300 mM MgCl2, 1200 mM KCl, 10 mM DTT, 400 μg/mL poly r(c).cndot.oligo d(G) [prepared by dissolving 1.5 mg (25 U) poly r(C).cndot.oligo d(G) in 1.5 ml sterile distilled H2 O and diluting to 400 μg/ml], 0.1 μCi/μl [^3 H]dGTP, 160 μM dGTP, was added to 10 μl sterile distilled H2 O, and 2.5 μl of potential inhibitor. An aliquot of 10 μL of 5 nM purified HIV RTR was added to initiate the reaction. The mixture was incubated at 37° C. for 45 minutes.
After incubation is complete, the tubes were cooled in ice for 5 minutes. Ice-cold 13% TCA containing 10 mM NaPPi (200 μl) are added and the mixture incubated on ice for 30 minutes. The precipitated cDNA is removed by filtration using presoaked glass filters [TCA, NaPPi ]. The precipitate is then washed with 1N HCl, 10 mM NaPPi.
The filter discs are then counted in a scintillation counter.
Under these conditions [dGTP] and poly r(C).cndot.oligo d(G)12-18 each are approximately equal to the appropriate Km value. Approximately 5-6,000 cpm of [^3 H] GMP are incorporated into acid-precipitable material. The RT reaction is concentration- and time-dependent. […] The calculated IC50 values for the compounds of this invention are as follows: […]

Structures are written as SMILES.

For orientation: IC50 means the concentration that gives 50% inhibition. In the case of `CCc1cc(NCc2cc(CC)c(C)nc2OC)c(O)nc1C` [Compound II, 3-[3-(5-ethyl-2-methoxy-6-methylpyridyl)methyl]amino-5-ethyl-6-methyl-2(1H)-pyridinone], in series [1], the “number of major products (metabolites) formed” value is given as “three” and the “number of minor products formed” value is reported as “at least 5”. The half-maximal inhibitory concentration (IC50) in series [2] turned out to be 29 nM. Consider `CCc1cc(CNc2cc(C(C)O)c(C)[nH]c2=O)c(OC)nc1C` (stereo not drawn) [Ia, 3-[3-(5-ethyl-2-methoxy-6-methylpyridyl)methyl]amino-5-(1-hydroxy)ethyl-6-m ethyl-2(1H )-pyridinone], for which, in series [2], the IC50 was found to be 195 nM.

In the case of `CCc1cc(NCc2cc(C(C)O)c(C)nc2OC)c(=O)[nH]c1C` (stereo not drawn) [Ib, 3-[3-(5-(1-hydroxy)ethyl-2-methoxy-6-methylpyridyl)methyl]amino-5-ethyl-6-m ethyl-2(1H)-pyridinone], the half-inhibitory concentration (IC50) in series [2] amounted to 390 nM. In the case of `CCc1cc(NCc2cc(CCO)c(C)nc2OC)c(=O)[nH]c1C` [Ic, 3-[3-(5-(2-hydroxy)ethyl-2-methoxy-6-methylpyridyl)-methyl]amino-5-ethyl-6-methyl-2(1H)-pyridinone], in series [2], the IC50 worked out at 250 nM.

The values are drawn from patent US5364776A, “Method of hydroxylating 3-[3-(5-ethyl-2-methoxy-6-methylpyridyl)methyl]amino-5-ethyl-6-methyl-2( 1H)-pyridinone with liver slices” (Merck & Co., Inc., priority 1992, dated 1994).
